The text below walks through data of US20240300980A1, “HETEROCYCLIC COMPOUNDS AS KRAS INHIBITOR, AND PREPARATION THEREFOR AND USE THEREOF IN TREATMENT” (SHANGHAI KECHOW PHARMA, INC., priority 2021, published 2024).

Structures are written as SMILES. Some results are limits rather than exact numbers.

For one test, the system named is AGS cells (KRAS^G12D). Put plainly: Detection of cell proliferation in vitro by MTT/MTS method (cell activity experiment). The test is classed as cell-based. The note with it: AGS cells; MTT/MTS; 3 days of drug treatment; read-out: AGS IC50. On the procedure:
The above cells were cultured in a complete medium containing 10% fetal bovine serum, 100 IU/mL penicillin and 100 jag/mL streptomycin, in the aseptic incubator with 95% relative humidity and 5% CO2 concentration.
2. Reagents: F12K, D-PBS, FBS, Penicillin Streptomycin, Tryple, MTT (5 mg/mL)
Appropriate amount of compound powder was weighed in a 1.5 mL centrifuge tube, then the corresponding volume of dimethyl sulfoxide (DMSO) was added to form a 20 mM reserve solution. The solution was packed separately and stored in a refrigerator at −20° C. away from light.
The cells were inoculated in a cell culture bottle, added an appropriate amount of complete medium, and cultured in a sterile incubator. When the degree of cell confluence reached more than 80%, subculture was carried out.
The adherent cells in logarithmic growth phase were digested by trypsin or the suspension cells were collected by centrifugation and counted. 90 μL cell suspension was inoculated into 96-well plate according to the cell inoculation density of 1000 cells per well, and 10 μL of 10-fold final concentration compound diluted by culture medium was added 24 hours later. Compared with the hole with the same volume of 5% DMSO as control, the final concentration of DMSO was 0.5%. After 3 days of drug treatment, the cell viability was detected by MTT. The specific methods are as follows: 10 μL MTT per well was added into the incubator for 4 hours, the supernatant was discarded and 150 μL DMSO was added to dissolve the crystal methylazan, and the absorbance of 490 nm was detected by enzyme labeling instrument, or 10 μL MITS per well was added to the incubator for 4 hours, and […] absorbance was detected directly by enzyme labeling instrument. GraphPad Prism 6 software makes dose-effect curve and calculates IC50.
For orientation: Formazan colour is commonly taken as a measure of viable cells.
Broadly, the IC50 is the concentration that gives 50% inhibition. `C#Cc1c(F)ccc2cc(O)cc(-c3ccc4c(N5C[C@H]6CC[C@@H](C5)N6)c(F)c(OC[C@@]56CCCN5C[C@H](F)C6)nc4c3F)c12` [Example 335, 4-(4-((1R,5S)-3,8-diazabicyclo[3.2.1]octan-3-yl)-3,8-difluoro-2-(((2R,7aS)-2-fluorotetrahydro-1H-pyrrolizin-7a(5H)-yl)methoxy)quinolin-7-yl)-5-ethynyl-6-fluoronanhthalen-2-ol]: the concentration for half-maximal inhibition (IC50) was determined as 20.7 nM.

For `C#Cc1c(F)ccc2cc(O)cc(-c3ccc4c(N5C[C@H]6CC[C@@H](C5)N6)nc(OC[C@]56CCCN5[C@@H](COC(=O)N(C)C)CC6)nc4c3)c12` [Example 153, ((3R,7aR)-7a-(((4-((1R, 5S)-3,8-diazabicyclo [3.2.1]octan-3-yl)-7-(8-ethynyl-7-fluoro-3-hydroxynaphthalen-1-yl)quinazolin-2-yl)oxy)methyl)hexahydro-1H-pyrrolizin-3-yl) methyl dimethylcarbamate], the 50% inhibitory concentration (IC50) was found to be 190 nM.

The test is the same for the next values; noted with them: Homo sapiens, AGS, 72 h, AGS cells; MTT/MTS; 3 days of drug treatment; read-out: AGS IC50.
Take `Oc1ccc2c(C#Cc3ncc4c(N5C[C@H]6CC[C@@H](C5)N6)nc(OC[C@@]56CCCN5C[C@H](F)C6)nc4c3F)c(F)ccc2c1` [Example 368, 5-((4-((1R,5S)-3,8-diazabicyclo[3.2.1]octan-3-yl)-8-fluoro-2-(((2R,7aS)-2-fluorotetrahydro-1H-pyrrolizin-7a(5H)-yl)methoxy)pyrido[4,3-d]pyrimidin-7-yl)ethynyl)-6-fluoronaphthalen-2-ol]: the IC50 was determined as 55 nM. In the case of `C#Cc1c(F)ccc2cc(O)cc(-c3ccc4c(N5CC(C(C)N)C5)nc(OC[C@@]56CCCN5C[C@H](F)C6)nc4c3F)c12` (stereo partly drawn) [Example 213, 4-(4-(3-(1-aminoethyl)azetidin-1-yl)-8-fluoro-2-(((2R,7aS)-2-fluorotetrahydro-1H-pyrrolizin-7a(5H)-yl)methoxy)quinazolin-7-yl)-5-ethynyl-6-fluoronaphthalen-2-ol], the 50% inhibitory concentration (IC50) is > 2500 nM.

Take `CC[C@H]1CCCc2cc(O)cc(-c3ncc4c(N5CC6CCC(C5)N6)nc(OC[C@@]56CCCN5C[C@H](F)C6)nc4c3F)c21` (single isomer, unassigned) [Example 229, (S)-4-(4-((1R,5S)-3,8-diazabicyclo[3.2.1]octan-3-yl)-8-fluoro-2-(((2R,7aS)-2-fluorotetrahydro-1H-pyrrolizin-7a(5H)-yl)methoxy)pyrido[4,3-d]pyrimidin-7-yl)-5-ethyl-5,6,7,8-tetrahydronaphthalen-2-ol or (R)-4-(4-((1R,5S)-3,8-diazabicyclo[3.2.1]octan-3-yl)-8-fluoro-2-(((2R,7aS)-2-fluorotetrahydro-1H-pyrrolizin-7a(5H)-yl)methoxy)pyrido[4,3-d]pyrimidin-7-yl)-5-ethyl-5,6,7,8-tetrahydronaphthalen-2-ol]: the IC50 was found to be 2.5 nM. Take `Oc1cc2c(c(-c3ccc4c(N5C[C@H]6CC[C@@H](C5)N6)nc(OC[C@@]56CCCN5C[C@H](F)C6)nc4c3F)c1)C1CC1C2` (stereo partly drawn) [Example 156, 2-(4-((1R,5S)-3,8-diazabicyclo[3.2.1]octan-3-yl)-8-fluoro-2-(((2R,7aS)-2-fluorotetrahydro-1H-pyrrolizin-7a(5H)-yl)methoxy)quinazolin-7-yl)-1,1a,6,6a-tetrahydrocyclopropa [a]inden-4-ol]: the half-inhibitory concentration (IC50) was 40 nM. In the case of `CCC1CCc2cc(O)cc(-c3c(F)c4nc(OC[C@@]56CCCN5C[C@H](F)C6)nc(N5C[C@H]6CC[C@@H](C5)N6)c4c4cncn34)c21` (stereo partly drawn) [Example 418, 7-(1-((1R,5S)-3,8-diazabicyclo[3.2.1]octan-3-yl)-5-fluoro-3-(((2R,7aS)-2-fluorotetrahydro-1H-pyrrolizin-7a(5H)-yl)methoxy)imidazo[1′,5′:1,2]pyrido[4,3-d]pyrimidin-6-yl)-1-ethyl-2,3-dihydro-1H-inden-5-ol], the IC50 was determined as 75 nM.

In the case of `C#Cc1c(F)ccc2cc(O)cc(-c3ncc4c(-c5ccn(C(=O)CO)c5)nc(OC[C@@]56CCCN5C[C@H](F)C6)nc4c3F)c12` [Example 86, 1-(3-(7-(8-ethynyl-7-fluoro-3-hydroxynaphthalen-1-yl)-8-fluoro-2-(((2R, 7aS)-2-fluorotetrahydro-1H-pyrrolizin-7a(5H)-yl)methoxy)pyrido[4,3-d]pyrimidin-4-yl)-1H-pyrrol-1-yl)-2-hydroxyethan-1-one], the IC50 is > 10000 nM.

`CCc1c(F)ccc2cc(O)cc(C3=C(F)c4nc(OC[C@@]56CCCN5C[C@H](F)C6)nc(N5C[C@H]6CC[C@@H](C5)N6)c4C4=NCCN43)c12` [Example 403, 4-(10-((1R,5S)-3,8-diazabicyclo[3.2.1]octan-3-yl)-6-fluoro-8-(((2R,7aS)-2-fluorotetrahydro-1H-pyrrolizin-7a(5H)-yl)methoxy)-2,3-dihydroimidazo[1′,2′:1,2]pyrido[4,3-d]pyrimidin-5-yl)-5-ethyl-6-fluoronaphthalen-2-ol]: the concentration for half-maximal inhibition (IC50) turned out to be 60 nM. The same measure, in the same setting: as for `CCc1cccc2cc(O)cc(-c3ccc4c(N5C[C@H]6CC[C@@H](C5)N6)c(C#N)c(OC[C@@]56CCCN5C[C@H](F)C6)nc4c3F)c12` [Example 181, 4-((1R,5S)-3,8-diazabicyclo[3.2.1]octan-3-yl)-7-(8-ethyl-3-hydroxynaphthalen-1-yl)-8-fluoro-2-(((2R,7aS)-2-fluorotetrahydro-1H-pyrrolizin-7a(5H)-yl)methoxy)quinoline-3-carbonitrile], the figure is 536 nM. With `Oc1cc(-c2ccc3c(N4C[C@H]5CC[C@@H](C4)N5)nc(OC[C@@]45CCCN4C[C@H](F)C5)nc3c2F)c2c(F)c(F)ccc2c1` [Example 94, 4-(4-((1R,5S)-3,8-diazabicyclo[3.2.1]octan-3-yl)-8-fluoro-2-(((2R,7aS)-2-fluorotetrahydro-1H-pyrrolizin-7a(5H)-yl)methoxy)quinazolin-7-yl)-5,6-difluoronaphthalen-2-ol], the IC50 turned out to be 1.5 nM. Still for that read-out and setting: as for `C#Cc1c(F)ccc2cc(O)cc(-c3ncc4c(N5CCC6(CCCS6)CC5)nc(OC[C@@]56CCCN5C[C@H](F)C6)nc4c3F)c12` [Example 49, 5-ethynyl-6-fluoro-4-(8-fluoro-2-(((2R, 7aS)-2-fluorotetrahydro-1H-pyrrolizin-7a(5H)-yl)methoxy)-4-(1-thia-8-azaspiro[4.5]decan-8-yl)pyrido[4,3-d]pyrimidin-7-yl)naphthalen-2-ol], the figure is > 10000 nM; as for `Oc1cc(-c2c(-c3cn[nH]c3)cc3c(N4C[C@H]5CC[C@@H](C4)N5)nc(OC[C@@]45CCCN4C[C@H](F)C5)nc3c2F)c2ccccc2c1` [Example 377, 4-(4-((1R,5S)-3,8-diazabicyclo[3.2.1]octan-3-yl)-8-fluoro-2-(((2R,7aS)-2-fluorotetrahydro-1H-pyrrolizin-7a(5H)-yl)methoxy)-6-(1H-pyrazol-4-yl)quinazolin-7-yl)naphthalen-2-ol], 120 nM. On to `C#Cc1cccc2cc(O)cc(-c3ncc4c(N5C[C@H]6CC[C@@H](C5)O6)nc(OC[C@@]56CCCN5C[C@H](F)C6)nc4c3F)c12` [Example 11, 4-(4-((1R,5S)-8-oxa-3-azabicyclo[3.2.1]octan-3-yl)-8-fluoro-2-(((2R,7aS)-2-fluorotetrahydro-1H-pyrrolizin-7a(5H)-yl)methoxy)pyrido[4,3-d]pyrimidin-7-yl)-5-ethynylnaphthalen-2-ol], for which the IC50 stood at 390 nM. Same read-out and setting: next, `C#Cc1c(F)ccc2cc(O)cc(-c3ccc4c(N5C[C@H]6CC[C@@H](C5)N6)c(C#N)c(OC[C@@]56CCCN5C[C@H](F)C6)nc4c3F)c12` [Example 177, 4-((1R,5S)-3,8-diazabicyclo[3.2.1]octan-3-yl)-7-(8-ethynyl-7-fluoro-3-hydroxynaphthalen-1-yl)-8-fluoro-2-(((2R,7aS)-2-fluorotetrahydro-1H-pyrrolizin-7a(5H)-yl)methoxy)quinoline-3-carbonitrile]: 530 nM; `CCc1coc2cc(O)cc(-c3ccc4c(N5C[C@H]6CC[C@@H](C5)N6)nc(OC[C@@]56CCCN5C[C@H](F)C6)nc4c3F)c12` [Example 293, 4-(4-((1R,5S)-3,8-diazabicyclo[3.2.1]octan-3-yl)-8-fluoro-2-(((2R,7aS)-2-fluorotetrahydro-1H-pyrrolizin-7a(5H)-yl)methoxy)quinazolin-7-yl)-3-ethylbenzofuran-6-ol]: 121 nM. On the same count and under the same terms, next, `CCc1c(F)ccc2cc(O)cc(-c3ccc4c(N5C[C@H]6CC[C@@H](C5)N6)nc(OC[C@]56CCCN5[C@@H](COC(=O)N(C)C)CC6)nc4c3)c12` [Example 154, ((3R,7aR)-7a-(((4-((1R, 5S)-3,8-diazabicyclo [3.2.1]octan-3-yl)-7-(8-ethyl-7-fluoro-3-hydroxynaphthalen-1-yl)quinazolin-2-yl)oxy)methyl)hexahydro-1H-pyrrolizin-3-yl) methyl dimethylcarbamate]: 195 nM; `CC1CCc2cc(O)cc(-c3ncc4c(N5C[C@H]6CC[C@@H](C5)N6)nc(OC[C@@]56CCCN5C[C@H](F)C6)nc4c3F)c21` (stereo partly drawn) [Example 223, 7-(4-((1R,5S)-3,8-diazabicyclo[3.2.1]octan-3-yl)-8-fluoro-2-(((2R,7aS)-2-fluorotetrahydro-1H-pyrrolizin-7a(5H)-yl)methoxy)pyrido[4,3-d]pyrimidin-7-yl)-1-methyl-2,3-dihydro-1H-inden-5-ol]: 14 nM.
